Here are results for 16 molecules from patent EP2057188B1 (priority 2006, dated 2008).

Experiment [1] is described as follows: IVGTT duration of action assay, single SC injection. Format: in vivo, rat. The following applies: compared with 0601GIP3794 (794); @ -120 min.
Procedure: In the typical IVGTT assays the test sample was administered by IV infusion. The IV infusion of sample was initiated at t = -30min and continued through t = 90. IV glucose was given at t = 0. To determine a duration of action using the IVGTT assay, the sample was injected SC as a single injection at one time point indicated (e.g., t = -240, -120, -60 or -30) prior to administration of glucose. IV glucose was given at t = 0.
Experiment [2] is classed as in vivo, NIH/Swiss mice. To be noted: 80 nmol/Kg; AUC240.
Procedure: Gavage (1.5g/kg) was given at t=0. Sample was taken at t=30 min.
For experiment [3] the following is noted: cited from earlier work; for EC(50): inhibition of gastric emptying, subcutaneous; for inhibition of gastric emptying: at doses of 100µg.
The format of experiment [4] is in vivo, rats. On the set-up: AUC Change in Insulin Pre IVGTT / AUC Change in Insulin Post IVGTT: unit not given beside the values. To be noted: for AUC Change in Insulin Post IVGTT / AUC Change in Insulin Pre IVGTT: rat, in vivo.
Where [5] appears, read: 100 pmol/kg/min infusion dose in rats.

Read-outs that look alike come from different tables or passages of the source. Ends that are not written are not given here.

On to `CC[C@H](C)[C@H](NC(=O)[C@H](CCCCN)NC(=O)[C@H](CC(=O)O)NC(=O)[C@H](CC(C)C)NC(=O)[C@H](C)NC(=O)[C@@H](NC(=O)[C@H](CO)NC(=O)[C@H](Cc1ccc(O)cc1)NC(=O)[C@H](CC(=O)O)NC(=O)[C@H](CO)NC(=O)[C@@H](NC(=O)[C@H](Cc1ccccc1)NC(=O)[C@@H](NC(=O)CNC(=O)[C@H](CCC(=O)O)NC(=O)[C@@H](C)NC(=O)[C@H](Cc1ccc(O)cc1)NC(=O)[C@@H](N)CC(C)C)[C@@H](C)O)[C@@H](C)CC)[C@@H](C)CC)C(=O)N[C@@H](C)C(=O)N[C@@H](CCC(N)=O)C(=O)N[C@@H](CCC(N)=O)C(=O)N[C@@H](CCC(=O)O)C(=O)N[C@@H](Cc1ccccc1)C(=O)N[C@H](C(=O)N[C@@H](CC(N)=O)C(=O)N[C@@H](Cc1c[nH]c2ccccc12)C(=O)N[C@@H](CC(C)C)C(=O)N[C@@H](CC(C)C)C(=O)N[C@@H](C)C(=O)N[C@@H](CCC(N)=O)C(=O)N[C@@H](CCCCN)C(=O)N1CCC[C@H]1C(=O)N[C@@H](CCCCN)C(=O)N[C@@H](CCCCN)C(=O)N[C@H](C(=O)N[C@@H](CCCNC(=N)N)C(=O)N[C@@H](Cc1ccc(O)cc1)C(=O)N[C@@H](CO)C(N)=O)[C@@H](C)CC)C(C)C` [0601 GIP48 02], for which the “Duration In The Rat IVGTT Assay” value in experiment [1] is recorded as < 794 @ -120 min. The “Basal Glucose Lowering at 80 nmol/Kg” value in experiment [2] is recorded as -15%, AUC240.
On to `CC[C@H](C)[C@H](NC(=O)[C@H](CO)NC(=O)[C@H](Cc1ccc(O)cc1)NC(=O)[C@H](CC(=O)O)NC(=O)[C@H](CO)NC(=O)[C@@H](NC(=O)[C@H](Cc1ccccc1)NC(=O)[C@@H](NC(=O)CNC(=O)[C@H](CCC(=O)O)NC(=O)[C@@H](C)NC(=O)[C@@H](N)Cc1ccc(O)cc1)[C@@H](C)O)[C@@H](C)CC)C(=O)N[C@@H](C)C(=O)N[C@@H](CC(C)C)C(=O)N[C@@H](CC(=O)O)C(=O)N[C@@H](CCCCN)C(=O)N[C@H](C(=O)N[C@@H](Cc1c[nH]cn1)C(=O)N[C@@H](CCC(N)=O)C(=O)N[C@@H](CCC(N)=O)C(=O)N[C@@H](CC(=O)O)C(=O)N[C@@H](Cc1ccccc1)C(=O)N[C@H](C(=O)N[C@@H](CC(N)=O)C(=O)N[C@@H](Cc1c[nH]c2ccccc12)C(=O)N[C@@H](CC(C)C)C(=O)N[C@@H](CC(C)C)C(=O)N[C@@H](C)C(=O)N[C@@H](CCC(N)=O)C(=O)N[C@@H](CCCCN)C(=O)N1CCC[C@H]1C(=O)N[C@@H](CCCCN)C(=O)N[C@@H](CCCCN)C(=O)N[C@H](C(=O)N[C@@H](CCCNC(=N)N)C(=O)N[C@@H](Cc1ccc(O)cc1)C(=O)N[C@@H](CO)C(N)=O)[C@@H](C)CC)C(C)C)[C@@H](C)CC` [0601 GIP48 07], for which the “Duration In The Rat IVGTT Assay” value in experiment [1] is on record as < 794 @-120 min. In addition, the “Basal Glucose Lowering at 80 nmol/Kg” value in experiment [2] is -26%, AUC240.
With `CC[C@H](C)[C@H](NC(=O)[C@H](CO)NC(=O)[C@H](Cc1ccc(O)cc1)NC(=O)[C@H](CC(=O)O)NC(=O)[C@H](CO)NC(=O)[C@@H](NC(=O)[C@H](Cc1ccccc1)NC(=O)[C@@H](NC(=O)CNC(=O)[C@H](CCC(=O)O)NC(=O)[C@@H](C)NC(=O)[C@@H](N)Cc1ccc(O)cc1)[C@@H](C)O)[C@@H](C)CC)C(=O)N[C@@H](C)C(=O)N[C@@H](CCSC)C(=O)N[C@@H](CC(=O)O)C(=O)N[C@@H](CCCCN)C(=O)N[C@H](C(=O)N[C@@H](Cc1c[nH]cn1)C(=O)N[C@@H](CCC(N)=O)C(=O)N[C@@H](CCC(N)=O)C(=O)N[C@@H](CC(=O)O)C(=O)N[C@@H](Cc1ccccc1)C(=O)N[C@H](C(=O)N[C@@H](CC(N)=O)C(=O)N[C@@H](Cc1c[nH]c2ccccc12)C(=O)N[C@@H](CC(C)C)C(=O)N[C@@H](CC(C)C)C(=O)N[C@@H](C)C(=O)N[C@@H](CCC(N)=O)C(=O)N[C@@H](CCCCN)C(=O)N1CCC[C@H]1C(=O)N[C@@H](C)C(=O)N[C@@H](CCCCN)C(=O)N[C@H](C(=O)N[C@@H](CCCNC(=N)N)C(=O)N[C@@H](Cc1ccc(O)cc1)C(=O)N[C@@H](CO)C(N)=O)[C@@H](C)CC)C(C)C)[C@@H](C)CC` [0601 GIP48 15], the “Duration In The Rat IVGTT Assay” value in experiment [1] is < 794@ -120 min. For the same molecule, the “Basal Glucose Lowering at 80 nmol/Kg” value in experiment [2] is listed as -14%, AUC240.
As for `CC[C@H](C)[C@H](NC(=O)[C@H](CO)NC(=O)[C@H](Cc1ccc(O)cc1)NC(=O)[C@H](CC(=O)O)NC(=O)[C@H](CO)NC(=O)[C@@H](NC(=O)[C@H](Cc1ccccc1)NC(=O)[C@@H](NC(=O)CNC(=O)[C@H](CCC(=O)O)NC(=O)[C@@H](C)NC(=O)[C@@H](N)Cc1ccc(O)cc1)[C@@H](C)O)[C@@H](C)CC)C(=O)N[C@@H](C)C(=O)N[C@@H](CCSC)C(=O)N[C@@H](CC(=O)O)C(=O)N[C@@H](CCCCN)C(=O)N[C@H](C(=O)N[C@@H](Cc1c[nH]cn1)C(=O)N[C@@H](CCC(N)=O)C(=O)N[C@@H](CCC(N)=O)C(=O)N[C@@H](CC(=O)O)C(=O)N[C@@H](Cc1ccccc1)C(=O)N[C@H](C(=O)N[C@@H](CC(N)=O)C(=O)N[C@@H](Cc1c[nH]c2ccccc12)C(=O)N[C@@H](CC(C)C)C(=O)N[C@@H](CC(C)C)C(=O)N[C@@H](C)C(=O)N[C@@H](CCC(N)=O)C(=O)N[C@@H](CCCCN)C(=O)N1CCC[C@H]1C(=O)N[C@@H](CCCCN)C(=O)N[C@@H](CCC(N)=O)C(=O)N[C@H](C(=O)N[C@@H](CCCNC(=N)N)C(=O)N[C@@H](Cc1ccc(O)cc1)C(=O)N[C@@H](CO)C(N)=O)[C@@H](C)CC)C(C)C)[C@@H](C)CC` [0601 GIP48 54], the “Duration In The Rat IVGTT Assay” value in experiment [1] was < 794@ -120 min.
Turning to “Rat calcitonin: peptide compared for inhibition of gastric emptying in conscious rats (CGNLSTCMLGTYTQDLNKFHTFPQTSIGVGAP; ends and bridges not checked; cysteine pairing not given here; UniProt P01257 85-116, looked up)”, the “EC(50)” value in experiment [3] (conscious rats ~200g) is listed as 0.64 µg; in experiment [3] (conscious rats), 0.94 nmol/kg.
Consider “Secretin: peptide compared for inhibition of gastric emptying in conscious rats”, for which the “EC(50)” value in experiment [3] (conscious rats ~200g) is 1.87 µg; in experiment [3] (conscious rats), 3.09 nmol/kg.
Turning to “[dAla2, Leu14, beta-Ala31, beta-Ala32] GIP-(1-32)-Exendin-4 (31-39) [Compound 0601GIP4179]”, in experiment [4], the “AUC Change in Insulin Post IVGTT” value was 206.8+-30.1 and the “AUC Change in Insulin Pre IVGTT” value is 52.4+-9.6. Besides, the “Basal Glucose Lowering at 80 nmol/Kg” value in experiment [2] is -17%, AUC240.
In the case of “[dAla2]GIP-(1-30)-[Octylglycine 34] Exendin-4 (31-39) [Compound 0601GIP4252]”, in experiment [4], the “AUC Change in Insulin Post IVGTT” value was 1218.1+ -12.7 and the “AUC Change in Insulin Pre IVGTT” value was 11.9+-11.7. In addition, the “Basal Glucose Lowering at 80 nmol/Kg” value in experiment [2] is -7%, AUC240.
Regarding “^25,28,29Pro-h-amylin (KCNTATCATQRLANFLVHSSNNFGPILPPTNVGSNTY; chains of the INN, looked up) [Pramlintide]”, the “EC(50)” value in experiment [3] (conscious rats ~200g) is 0.07 µg.
“adrenomedullin: peptide compared for inhibition of gastric emptying in conscious rats (YRQSMNNFQGLRSFGCRFGTCTVQKLAHQIYQFTDKDKDNVAPRSKISPQGY; ends and bridges not checked; cysteine pairing not given here; UniProt P35318 95-146, looked up)”: in experiment [3], the “inhibition of gastric emptying” value was “weakly active or inactive”.
Consider “glucagon: peptide compared for inhibition of gastric emptying in conscious rats”, for which, in experiment [3], the “inhibition of gastric emptying” value is “weakly active or inactive”.
For the molecule “neuropeptide Y: peptide compared for inhibition of gastric emptying in conscious rats”, the “inhibition of gastric emptying” value in experiment [3] is “weakly active or inactive”.
With “octylglycine-GIP(1-30)-Exendin-4-(31-39) [Compound 0601GIP4178]”, in experiment [4] (setting [5]), the “insulin levels prior to the glucose challenge” value was “significant rise in insulin levels” and the “insulinotropic response to an intravenous glucose challenge” value was “diminished insulinotropic response”. Further, in experiment [4], the “AUC Change in Insulin Post IVGTT” value is listed as 106.6+-23.8 and the “AUC Change in Insulin Pre IVGTT” value was 18.5+-6.7. Also, in experiment [2], the “Basal Glucose Lowering at 80 nmol/Kg” value is -13%, AUC240.
On to “pancreatic polypeptide: peptide compared for inhibition of gastric emptying in conscious rats (APLEPVYPGDNATPEQMAQYAADLRRYINMLTRPRY; ends and bridges not checked; UniProt P01298 30-65, looked up)”, for which the “inhibition of gastric emptying” value in experiment [3] is “weakly active or inactive”.
For “somatostatin: peptide compared for inhibition of gastric emptying in conscious rats (AGCKNFFWKTFTSC; ends and bridges not checked; cysteine pairing not given here; UniProt P61278 103-116, looked up)”, the “inhibition of gastric emptying” value in experiment [3] was “weakly active or inactive”.
Regarding “vasoactive intestinal peptide: peptide compared for inhibition of gastric emptying in conscious rats (HSDAVFTDNYTRLRKQMAVKKYLNSILN; ends and bridges not checked; UniProt P01282 125-152, looked up)”, the “inhibition of gastric emptying” value in experiment [3] was “weakly active or inactive”.
